# Experimental data taken from patent publication US7169803B2, “N-substituted prodrugs of fluorooxindoles” (Bristol-Myers Squibb Company, priority 2004, dated 2007).
# Structures can show the parent of a compound that is named as a salt.
# Test system: cloned mammalian (mSlo or hSlo) BK channels heterologously expressed in Xenopus oocytes
# Assay: BK-mediated outward current in Xenopus oocytes, two-electrode voltage clamp
# Assay type: cell-based
# Conditions: 10 μM, at least 5 oocytes, steps from -60 mV to +140 mV
# Method: (§1) The ability of the compound of Formula IV to open BK channels and increase whole-cell outward (K^+) BK-mediated currents was assessed under voltage-clamp conditions by determining their ability to increase cloned mammalian (mSlo or hSlo) BK-mediated outward current heterologously expressed in Xenopus oocytes [Butler, A., et al., Science, 261, pp. 221–224 (1993); and Dworetzky, S. I., et al., Mol. Brain Res., 27, pp. 189–193 (1994)]. The two BK constructs employed represent nearly structurally identical homologous proteins, and have proven to be pharmacologically identical in our tests. To isolate BK current from native (background, non-BK) current, the specific and potent BK channel-blocking toxin iberiotoxin (IBTX) [Galvez, A., et al., J. Biol. Chem, 265, pp. 11083–11090 (1990)] was employed at a supramaximal concentration (50 nM). The relative contribution of BK channels current to total outward current was determined by subtraction of the current remaining in the presence of IBTX (non-BK current) from the current profiles obtained in all other experimental conditions (control, drug, and wash). […] The compound of Formula IV was shown in at least 5 oocytes at a concentration of 10 μM to increase BK current to 170% of control of IBTX-sensitive current. […]
row,SMILES,increase BK current to % of control of IBTX-sensitive current
1,"COc1ccc(Cl)cc1C1(F)C(=O)Nc2cc(C(F)(F)F)ccc21 (stereo not shown) [compound of Formula IV, 3-(5-chloro-2-methoxyphenyl)-3-fluoro-6-(trifluoromethyl)indolin-2-one]",170 % of control

# Test system: non-BK native currents in the oocytes
# Assay: Effect on non-BK native currents in oocytes (current remaining in presence of IBTX)
# Assay type: cell-based, Xenopus
# Conditions: at the tested concentration
# Method: as §1
row,SMILES,effect on non-BK native currents in the oocytes
1,"COc1ccc(Cl)cc1C1(F)C(=O)Nc2cc(C(F)(F)F)ccc21 (stereo not shown) [compound of Formula IV, 3-(5-chloro-2-methoxyphenyl)-3-fluoro-6-(trifluoromethyl)indolin-2-one]",did not effect non-BK native currents

# Test system: focal cerebral ischemia (MCAO)
# Assay: Focal stroke model: permanent MCA/CCA occlusion, cortical infarct volume
# Assay type: in vivo, Wistar rat
# Conditions: intravenously (0.3 mg//kg) single bolus two hours after MCA occlusion; vs vehicle-treated control; measured 24 hours after MCAO
# Method: To determine the ability of the compounds of the present invention to reduce cell loss resulting from neuronal ischemia, a standard focal cerebral ischemia is induced by permanent occlusion of the left middle cerebral artery (MCA) and common carotid artery (CCA) with one hour occlusion of the right CCA in the Wistar rat. The surgeries are performed using the sub-temporal approach of A. Tamura, et al., J. Cereb. Blood Flow Metab., 1, pp. 53–60, (1981) and its modifications [K. Osborne, et al., J. Neurol Neurosurg. Psychiatry, 50, pp. 402–410 (1987) and S. Menzies, et al., Neurosurgery, 31, pp. 100–107, (1992).]
# The compound of Formula IV was evaluated in the focal stroke model involving permanent occlusion of the left MCA (MCAO) and CCA (CCAO) and temporary occlusion of the right CCA in the Wistar rat [Gribkoff, et al. Nature Med. 7, pp. 471–477 (2001)]. This procedure results in a reliably large neocortical infarct volume that is measured by means of vital dye exclusion in serial slices through the brain 24 hours after MCAO. In the present test, compounds were administered using an i.v. or i.p. route of administration two hours after occlusion.
row,SMILES,reduction of cortical infarct volume
1,"COc1ccc(Cl)cc1C1(F)C(=O)Nc2cc(C(F)(F)F)ccc21 (stereo not shown) [compound of Formula IV, 3-(5-chloro-2-methoxyphenyl)-3-fluoro-6-(trifluoromethyl)indolin-2-one]",about 28%

# Test system: not given
# Assay: not given
# Conditions: not given
row,melting point,SMILES
1,72 to 76 °C,"COc1ccc(Cl)cc1[C@]1(F)C(=O)N(C(=O)NCCC(=O)O)c2cc(C(F)(F)F)ccc21 [Example 42, (S)-3-(3-(5-chloro-2-methoxyphenyl)-3-fluoro-2-oxo-6-(trifluoromethyl)-indoline-1-carboxamido)propanoic acid]"
2,155 to 160 °C,"CCN(CC)CCN(CC)Cc1ccc(C(=O)OCN2C(=O)[C@@](F)(c3cc(Cl)ccc3OC)c3ccc(C(F)(F)F)cc32)cc1 (as salt: hydrochloride) [Example 29, (S)-(3-(5-chloro-2-methoxyphenyl)-3-fluoro-2-oxo-6-(trifluoromethyl)indolin-1-yl)methyl 4-(((2-(diethylamino)ethyl)(ethyl)amino)methyl)benzoate, hydrochloride]"
3,120 to 125 °C,"CCN(CC)CCN(CC)Cc1cccc(C(=O)OCN2C(=O)[C@@](F)(c3cc(Cl)ccc3OC)c3ccc(C(F)(F)F)cc32)c1 (as salt: hydrochloride) [Example 30, (S)-(3-(5-chloro-2-methoxyphenyl)-3-fluoro-2-oxo-6-(trifluoromethyl)indolin-1-yl)methyl 3-(((2-(diethylamino)ethyl)(ethyl)amino)methyl)benzoate, hydrochloride]"
4,107 to 110 °C,"COc1ccc(Cl)cc1[C@]1(F)C(=O)N(C(=O)NC(C)(C)C(=O)O)c2cc(C(F)(F)F)ccc21 [Example 38, (S)-2-(3-(5-chloro-2-methoxyphenyl)-3-fluoro-2-oxo-6-(trifluoromethyl)-indoline-1-carboxamido)-2-methylpropanoic acid]"
5,98 to 102 °C,"COc1ccc(Cl)cc1[C@]1(F)C(=O)N(C(=O)N[C@@H](Cc2ccccc2)C(=O)O)c2cc(C(F)(F)F)ccc21 [Example 41, (S)-2-((S)-3-(5-chloro-2-methoxyphenyl)-3-fluoro-2-oxo-6-(trifluoromethyl)-indoline-1-carboxamido)-3-phenylpropanoic acid]"
6,88 to 92 °C,"CC[C@H](C)[C@H](NC(=O)N1C(=O)[C@@](F)(c2cc(Cl)ccc2OC)c2ccc(C(F)(F)F)cc21)C(=O)O [Example 40, (2S,3S)-2-((S)-3-(5-chloro-2-methoxyphenyl)-3-fluoro-2-oxo-6-(trifluoromethyl)indoline-1-carboxamido)-3-methylpentanoic acid]"
7,100 to 104 °C,"COc1ccc(Cl)cc1[C@]1(F)C(=O)N(C(=O)N[C@H](C(=O)O)C(C)C)c2cc(C(F)(F)F)ccc21 [Example 39, (S)-2-((S)-3-(5-chloro-2-methoxyphenyl)-3-fluoro-2-oxo-6-(trifluoromethyl)-indoline-1-carboxamido)-3-methylbutanoic acid]"
8,85 to 89 °C,"COc1ccc(Cl)cc1[C@]1(F)C(=O)N(COC(=O)c2ccc(CN3CCCCC3)cc2)c2cc(C(F)(F)F)ccc21 (as salt: trifluoroacetate) [Example 31, (S)-4-Piperidin-1-ylmethyl-benzoic acid 3-(5-chloro-2-methoxy-phenyl)-3-fluoro-2-oxo-6-trifluoromethyl-2,3-dihydro-indol-1-ylmethyl ester, trifluoroacetate]"
9,103 to 107 °C,"COc1ccc(Cl)cc1[C@]1(F)C(=O)N(C(=O)N[C@@H](C)C(=O)O)c2cc(C(F)(F)F)ccc21 [Example 35, (S)-2-((S)-3-(5-chloro-2-methoxyphenyl)-3-fluoro-2-oxo-6-(trifluoromethyl)-indoline-1-carboxamido)propanoic acid]"
10,90 to 94 °C,"COc1ccc(Cl)cc1[C@]1(F)C(=O)N(C(=O)N[C@@H](CCC(=O)O)C(=O)O)c2cc(C(F)(F)F)ccc21 [Example 37, (S)-2-((S)-3-(5-chloro-2-methoxyphenyl)-3-fluoro-2-oxo-6-(trifluoromethyl)-indoline-1-carboxamido)pentanedioic acid]"

# Continued, compound first:
row,SMILES,melting point
1,"CCN(CC)Cc1cccc(C(=O)OCN2C(=O)[C@@](F)(c3cc(Cl)ccc3OC)c3ccc(C(F)(F)F)cc32)c1 (as salt: hydrochloride) [Example 28, (S)-(3-(5-chloro-2-methoxyphenyl)-3-fluoro-2-oxo-6-(trifluoromethyl)indolin-1-yl)methyl 3-((diethylamino)methyl)benzoate, hydrochloride]",195 to 198 °C (dec.)
2,"COc1ccc(Cl)cc1[C@]1(F)C(=O)N(C(=O)OCOC(=O)CCC(=O)O)c2cc(C(F)(F)F)ccc21 [Example 16, (S)-4-((3-(5-chloro-2-methoxyphenyl)-3-fluoro-2-oxo-6-(trifluoromethyl)indoline-1-carbonyloxy)methoxy)-4-oxobutanoic acid]",68 to 71 °C (dec.)
3,"COc1ccc(Cl)cc1[C@]1(F)C(=O)N(COC(=O)CN(C)C)c2cc(C(F)(F)F)ccc21 (as salt: hydrochloride) [Example 14, (S)-(3-(5-chloro-2-methoxyphenyl)-3-fluoro-2-oxo-6-(trifluoromethyl)indolin-1-yl)methyl 2-(dimethylamino)acetate, hydrochloride)]",157 to 160 °C
4,COc1ccc(Cl)cc1[C@]1(F)C(=O)N(COC(=O)c2ccc(CN3CCN(C)CC3)cc2)c2cc(C(F)(F)F)ccc21 (as salt: hydrochloride) [Example 25],265 to 269 °C (dec.)
5,COc1ccc(Cl)cc1[C@]1(F)C(=O)N(COC(=O)c2cccc(CN3CCN(C)CC3)c2)c2cc(C(F)(F)F)ccc21 (as salt: hydrochloride) [Example 26],190 to 193 °C (dec.)
6,"COc1ccc(Cl)cc1[C@]1(F)C(=O)N(COC(=O)c2ccc(CN3CCOCC3)cc2)c2cc(C(F)(F)F)ccc21 (as salt: hydrochloride) [Example 23, (S)-(3-(5-chloro-2-methoxyphenyl)-3-fluoro-2-oxo-6-(trifluoromethyl)indolin-1-yl)methyl 4-(morpholinomethyl)benzoate, hydrochloride]",174 to 178 °C
7,"CCN(CC)Cc1ccc(C(=O)OCN2C(=O)[C@@](F)(c3cc(Cl)ccc3OC)c3ccc(C(F)(F)F)cc32)cc1 (as salt: trifluoroacetate) [Example 27, (S)-(3-(5-chloro-2-methoxyphenyl)-3-fluoro-2-oxo-6-(trifluoromethyl)indolin-1-yl)methyl 4-((diethylamino)methyl)benzoate, trifluoroacetate]",75 to 80 °C

# Test system: traumatic brain injury (TBI)
# Assay: not given
# Conditions: rat TBI model; Cheney, et al. 2001; cited from earlier work
row,SMILES,reductions in edema in regions adjacent to the impact zone
1,"COc1ccc(Cl)cc1[C@]1(F)C(=O)Nc2cc(C(F)(F)F)ccc21 [Compound of Formula (S)-IV, (S)-3-(5-chloro-2-methoxyphenyl)-3-fluoro-6-(trifluoromethyl)-indolin-2-one]",significant reductions in edema

# Test system: not given
# Assay: not given
# Conditions: cited from earlier work
row,SMILES,aqueous solubility
1,"COc1ccc(Cl)cc1[C@]1(F)C(=O)Nc2cc(C(F)(F)F)ccc21 [Compound of Formula (S)-IV, (S)-3-(5-chloro-2-methoxyphenyl)-3-fluoro-6-(trifluoromethyl)-indolin-2-one]",low aqueous solubility
